# Experiments:
# PIK3CB = PIK3CB (Homo sapiens, UniProt P42338); assay: KiNativ, OCI cells live cell; format: cell-based; conditions: 2 h, labeling site ATP, peptide […]
# JAK1 domain2 = target: T1, JAK1 domain2 (Homo sapiens, UniProt P23458); assay: KiNativ, OCI cells live cell; format: cell-based
# T1 construct: JAK1 domain2
# PFTAIRE2 = PFTAIRE2 (Homo sapiens, UniProt Q96Q40); assay: KiNativ, OCI cells live cell; format: cell-based; conditions: 2 h, labeling site Lys2, peptide […]
# MARK2, MARK3 = assay: KiNativ, OCI cells live cell; format: cell-based, human; conditions: labeling site Lys2, peptide DLKAENLLLDADMNIK
# JAK3 domain2 = target: T2, JAK3 domain2 (Homo sapiens, UniProt P52333); assay: KiNativ, OCI cells live cell; format: cell-based; conditions: 2 h, labeling site Lys1, peptide […]
# T2 construct: JAK3 domain2
# PRP4 = PRP4 (Homo sapiens, UniProt Q13523); assay: KiNativ, OCI cells live cell; format: cell-based; conditions: 2 h, labeling site Lys2, peptide […]
# DLK = DLK (Homo sapiens, UniProt Q12852); assay: KiNativ, OCI cells live cell; format: cell-based; conditions: labeling site Lys2, peptide DLKSPNMLITYDDVVK
# MARK3, MARK4 = assay: KiNativ, OCI cells live cell; format: cell-based, human; conditions: labeling site Lys1, peptide EVAIKIIDK
# FLT3 ITD/D835V = FLT3 ITD/D835V (Homo sapiens, UniProt P36888, D835V/ITD); assay: KdELECT binding assay
# CK1g3 = CK1g3 (Homo sapiens, UniProt Q9Y6M4); assay: KiNativ, OCI cells live cell; format: cell-based; conditions: labeling site Lys2, peptide DVKPENFLIGRPGNK
# [1] = tested on: phospho-FLT3 and phospho-STAT5 in MOLM13 and MV4-11 cells; assay: Western blot, signaling inhibition; format: cell-based, human; conditions: 4 hours
# Procedure: (§1) MOM13 cells were serum starved (RPMI plus 0.5% FBS) for 18–24 hours prior to start of drug treatment. For other cells, they were not serum starved. Drug treatments were carried out for 1 or 4 hours, at which time cells were lysed with Cell Lysis buffer (CST) or RIPA buffer (CST) supplemented with protease and phosphatase inhibitors. […] Western blots were developed with either Signal Fire ECL reagent (CST) or SuperSignal West Femto Maximum Sensitivity Substrate (Invitrogen) using Film or Odyssey FC Imaging System (LI-COR Biosciences). Western blots were repeated in 2–3 biological replicate experiments.
# [2] = tested on: pAURKA, pAURKB, pAKT, and MCL1 in OCI-AML3 cells; assay: Western blot, signaling inhibition; format: cell-based, human; conditions: 100 nM, 4 hours
# Procedure: as §1
# LCK = LCK (Homo sapiens, UniProt P06239); assay: KiNativ, OCI cells live cell; format: cell-based; conditions: 2 h, labeling site Activation Loop, peptide […]
# NEK3 = NEK3 (Homo sapiens, UniProt P51956); assay: KiNativ, MOLM13 live cells; format: cell-based; conditions: MOLM-13; 100 nM, 2 hours; Activation Loop; read-out: Inhibition vs DMSO
# Procedure: (§2) Samples were analyzed by KiNativ in situ kinase profiling by ActivX Biosciences.
# PEK = PEK (Homo sapiens, UniProt Q9NZJ5); assay: KiNativ, MOLM13 live cells; format: cell-based; conditions: 100 nM, 2 hours, Lys2, read-out: Inhibition vs DMSO
# Procedure: as §2
# RSK1 domain1 = target: T3, RSK1 domain1 (Homo sapiens, UniProt Q15418); assay: KiNativ, MOLM13 live cells; format: cell-based; conditions: MOLM-13; 100 nM, 2 hours; Activation Loop; read-out: Inhibition vs DMSO
# T3 construct: RSK1 domain1
# T3 sequence (Q15418 whole entry, the tested form may be a part): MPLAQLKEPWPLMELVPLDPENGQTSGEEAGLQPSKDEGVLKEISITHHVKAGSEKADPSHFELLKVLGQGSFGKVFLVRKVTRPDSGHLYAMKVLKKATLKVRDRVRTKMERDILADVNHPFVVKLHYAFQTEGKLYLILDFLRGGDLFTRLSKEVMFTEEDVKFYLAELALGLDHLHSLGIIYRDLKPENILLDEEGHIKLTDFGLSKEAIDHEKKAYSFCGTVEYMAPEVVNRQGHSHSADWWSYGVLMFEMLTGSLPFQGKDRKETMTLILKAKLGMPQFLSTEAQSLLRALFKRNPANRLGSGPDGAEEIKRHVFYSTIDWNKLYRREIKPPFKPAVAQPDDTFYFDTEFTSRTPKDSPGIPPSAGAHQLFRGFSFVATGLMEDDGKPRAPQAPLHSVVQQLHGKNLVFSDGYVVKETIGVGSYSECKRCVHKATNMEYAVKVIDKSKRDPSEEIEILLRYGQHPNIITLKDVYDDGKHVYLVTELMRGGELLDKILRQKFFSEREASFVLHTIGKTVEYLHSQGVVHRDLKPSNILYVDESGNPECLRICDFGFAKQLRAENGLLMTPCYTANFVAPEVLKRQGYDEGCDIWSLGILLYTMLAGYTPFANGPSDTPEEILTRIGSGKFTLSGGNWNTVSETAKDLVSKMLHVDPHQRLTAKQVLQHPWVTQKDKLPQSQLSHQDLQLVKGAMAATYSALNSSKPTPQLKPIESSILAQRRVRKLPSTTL
# Procedure: as §2
# MST1 [3] = target: T4, MST1 (Homo sapiens, UniProt Q13043); assay: KiNativ, MOLM13 live cells; format: cell-based; conditions: 100 nM, 2 hours; Lys1
# T4 sequence (Q13043 whole entry): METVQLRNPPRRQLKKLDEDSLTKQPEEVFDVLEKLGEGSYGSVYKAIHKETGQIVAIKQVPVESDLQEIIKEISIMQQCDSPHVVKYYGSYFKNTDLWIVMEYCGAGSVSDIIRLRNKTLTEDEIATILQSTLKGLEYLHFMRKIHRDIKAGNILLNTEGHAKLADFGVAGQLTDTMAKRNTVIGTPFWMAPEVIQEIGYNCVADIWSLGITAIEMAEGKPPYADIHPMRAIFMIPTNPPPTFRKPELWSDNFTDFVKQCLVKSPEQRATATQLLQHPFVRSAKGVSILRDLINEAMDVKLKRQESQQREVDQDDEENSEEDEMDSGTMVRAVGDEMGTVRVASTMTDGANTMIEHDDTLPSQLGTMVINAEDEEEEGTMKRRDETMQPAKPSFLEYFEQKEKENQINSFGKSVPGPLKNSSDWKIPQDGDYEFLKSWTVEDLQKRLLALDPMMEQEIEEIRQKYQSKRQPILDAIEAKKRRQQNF
# Procedure: as §2
# MAST3 = MAST3 (Homo sapiens, UniProt O60307); assay: KiNativ, MOLM13 live cells; format: cell-based; conditions: MOLM-13; 100 nM, 2 hours; Lys2; read-out: Inhibition vs DMSO
# Procedure: as §2
# PRPK = PRPK (Homo sapiens, UniProt Q96S44); assay: KiNativ, MOLM13 live cells; format: cell-based; conditions: MOLM-13; 100 nM, 2 hours; ATP Loop; read-out: Inhibition vs DMSO
# Sequence of PRPK (Q96S44 whole entry): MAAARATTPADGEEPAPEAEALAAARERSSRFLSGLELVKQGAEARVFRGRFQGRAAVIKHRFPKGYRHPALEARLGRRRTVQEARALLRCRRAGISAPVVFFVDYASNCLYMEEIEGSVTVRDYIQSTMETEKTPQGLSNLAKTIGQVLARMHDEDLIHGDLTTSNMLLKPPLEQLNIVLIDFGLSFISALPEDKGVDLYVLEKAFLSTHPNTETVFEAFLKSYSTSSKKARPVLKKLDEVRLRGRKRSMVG
# Procedure: as §2
# JAK1 domain1 = target: T5, JAK1 domain1 (Homo sapiens, UniProt P23458); assay: KiNativ, MOLM13 live cells; format: cell-based; conditions: 100 nM, 2 hours; Activation Loop
# T5 construct: JAK1 domain1
# T5 sequence (P23458 whole entry, the tested form may be a part): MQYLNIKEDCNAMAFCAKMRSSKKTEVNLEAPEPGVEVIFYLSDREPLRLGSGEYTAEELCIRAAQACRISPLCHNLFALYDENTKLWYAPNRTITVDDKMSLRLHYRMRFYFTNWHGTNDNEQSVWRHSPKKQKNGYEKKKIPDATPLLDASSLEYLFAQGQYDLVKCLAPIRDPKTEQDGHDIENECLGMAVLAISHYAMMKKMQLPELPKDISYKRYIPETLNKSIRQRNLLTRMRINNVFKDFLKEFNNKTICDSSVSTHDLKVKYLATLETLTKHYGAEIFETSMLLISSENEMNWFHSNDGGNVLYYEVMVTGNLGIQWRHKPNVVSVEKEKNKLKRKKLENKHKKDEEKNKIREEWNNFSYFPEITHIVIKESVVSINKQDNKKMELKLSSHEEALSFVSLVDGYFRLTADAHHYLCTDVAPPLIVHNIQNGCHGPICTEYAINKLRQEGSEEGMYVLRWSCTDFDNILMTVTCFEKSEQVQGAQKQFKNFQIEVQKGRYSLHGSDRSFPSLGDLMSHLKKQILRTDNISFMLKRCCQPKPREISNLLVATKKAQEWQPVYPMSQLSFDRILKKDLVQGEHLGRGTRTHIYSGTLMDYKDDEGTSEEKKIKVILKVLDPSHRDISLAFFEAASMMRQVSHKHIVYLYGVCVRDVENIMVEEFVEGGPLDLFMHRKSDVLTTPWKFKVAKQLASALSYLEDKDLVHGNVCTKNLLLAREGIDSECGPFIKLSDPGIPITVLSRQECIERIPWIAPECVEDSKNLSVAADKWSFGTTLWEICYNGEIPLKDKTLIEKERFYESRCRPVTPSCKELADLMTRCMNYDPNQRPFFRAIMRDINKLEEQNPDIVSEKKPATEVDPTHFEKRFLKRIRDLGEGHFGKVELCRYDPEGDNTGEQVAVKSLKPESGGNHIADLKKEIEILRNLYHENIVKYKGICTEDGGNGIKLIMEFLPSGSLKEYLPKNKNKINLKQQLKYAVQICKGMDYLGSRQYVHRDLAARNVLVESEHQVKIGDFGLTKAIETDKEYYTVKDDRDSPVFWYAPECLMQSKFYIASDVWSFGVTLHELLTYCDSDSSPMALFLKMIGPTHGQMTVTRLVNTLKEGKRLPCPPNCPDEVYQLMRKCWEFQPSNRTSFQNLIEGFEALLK
# Procedure: as §2
# CHEK1 = target: T6, CHEK1 (Homo sapiens, UniProt O14757); assay: KdELECT binding assay
# T6 construct: purchased Eurofins DiscoverX
# BTK = BTK (Homo sapiens, UniProt Q06187); assay: KiNativ, OCI cells live cell; format: cell-based; conditions: labeling site Activation Loop, peptide YVLDDEYTSSVGSKFPVR
# [4] = tested on: phospho-FLT3 and phospho-STAT5 in Ba/F3-FLT3-ITD/F691L cells; assay: Western blot, signaling inhibition; format: cell-based, mouse; conditions: increasing concentrations, 1 hour
# Procedure: as §1
# TYK2 domain2 = target: T7, TYK2 domain2 (Homo sapiens, UniProt P29597); assay: KiNativ, OCI cells live cell; format: cell-based
# T7 construct: TYK2 domain2
# T7 sequence (P29597 whole entry, the tested form may be a part): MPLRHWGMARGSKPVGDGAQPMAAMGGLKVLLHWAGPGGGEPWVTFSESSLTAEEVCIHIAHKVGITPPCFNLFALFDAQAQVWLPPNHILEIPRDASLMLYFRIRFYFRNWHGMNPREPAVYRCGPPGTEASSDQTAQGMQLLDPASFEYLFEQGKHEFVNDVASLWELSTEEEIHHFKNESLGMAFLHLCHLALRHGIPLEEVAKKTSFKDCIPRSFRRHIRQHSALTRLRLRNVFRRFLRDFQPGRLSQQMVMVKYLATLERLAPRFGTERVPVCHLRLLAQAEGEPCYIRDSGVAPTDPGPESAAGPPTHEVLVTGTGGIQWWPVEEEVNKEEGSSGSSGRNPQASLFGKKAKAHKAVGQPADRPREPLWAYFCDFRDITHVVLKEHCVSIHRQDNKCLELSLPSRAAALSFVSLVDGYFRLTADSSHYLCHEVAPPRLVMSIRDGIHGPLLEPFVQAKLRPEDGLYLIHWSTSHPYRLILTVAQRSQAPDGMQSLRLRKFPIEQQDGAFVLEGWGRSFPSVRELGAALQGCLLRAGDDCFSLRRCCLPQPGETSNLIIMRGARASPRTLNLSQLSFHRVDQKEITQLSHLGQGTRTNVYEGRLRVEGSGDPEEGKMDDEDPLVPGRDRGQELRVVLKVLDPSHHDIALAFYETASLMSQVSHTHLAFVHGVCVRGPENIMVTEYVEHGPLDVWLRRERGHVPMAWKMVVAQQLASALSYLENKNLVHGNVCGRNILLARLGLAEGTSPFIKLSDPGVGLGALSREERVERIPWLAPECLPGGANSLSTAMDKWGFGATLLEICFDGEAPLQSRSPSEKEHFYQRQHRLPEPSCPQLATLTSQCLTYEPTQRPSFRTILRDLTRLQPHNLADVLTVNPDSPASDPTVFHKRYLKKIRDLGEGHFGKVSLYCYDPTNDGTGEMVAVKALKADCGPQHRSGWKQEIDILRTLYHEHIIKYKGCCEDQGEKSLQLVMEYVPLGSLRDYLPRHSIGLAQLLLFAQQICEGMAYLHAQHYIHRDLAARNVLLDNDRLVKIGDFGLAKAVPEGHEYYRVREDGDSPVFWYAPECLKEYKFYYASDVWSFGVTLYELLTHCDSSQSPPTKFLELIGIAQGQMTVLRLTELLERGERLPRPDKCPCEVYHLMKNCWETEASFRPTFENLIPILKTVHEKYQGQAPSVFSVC
# CHK2 = CHK2 (Homo sapiens, UniProt O96017); assay: KiNativ, OCI cells live cell; format: cell-based; conditions: 2 h
# Sequence of CHK2 (O96017 whole entry): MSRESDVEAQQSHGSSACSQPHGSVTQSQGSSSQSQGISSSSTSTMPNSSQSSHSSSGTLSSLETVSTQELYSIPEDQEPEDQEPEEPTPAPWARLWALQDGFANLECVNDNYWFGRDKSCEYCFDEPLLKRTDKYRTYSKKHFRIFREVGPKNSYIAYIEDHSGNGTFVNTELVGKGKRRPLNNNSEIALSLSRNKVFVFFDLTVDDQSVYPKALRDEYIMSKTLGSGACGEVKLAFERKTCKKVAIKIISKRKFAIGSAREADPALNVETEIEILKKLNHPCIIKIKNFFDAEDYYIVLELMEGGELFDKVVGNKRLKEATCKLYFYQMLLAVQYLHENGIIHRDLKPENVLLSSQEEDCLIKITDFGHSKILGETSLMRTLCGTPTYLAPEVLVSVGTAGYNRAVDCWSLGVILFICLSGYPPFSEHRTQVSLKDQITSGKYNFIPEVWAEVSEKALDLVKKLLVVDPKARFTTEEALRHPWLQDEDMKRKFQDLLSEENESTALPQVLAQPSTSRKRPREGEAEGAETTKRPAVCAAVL
# PLK1 = PLK1 (Homo sapiens, UniProt P53350); assay: KiNativ, OCI cells live cell; format: cell-based; conditions: 2 h
# Sequence of PLK1 (P53350 whole entry): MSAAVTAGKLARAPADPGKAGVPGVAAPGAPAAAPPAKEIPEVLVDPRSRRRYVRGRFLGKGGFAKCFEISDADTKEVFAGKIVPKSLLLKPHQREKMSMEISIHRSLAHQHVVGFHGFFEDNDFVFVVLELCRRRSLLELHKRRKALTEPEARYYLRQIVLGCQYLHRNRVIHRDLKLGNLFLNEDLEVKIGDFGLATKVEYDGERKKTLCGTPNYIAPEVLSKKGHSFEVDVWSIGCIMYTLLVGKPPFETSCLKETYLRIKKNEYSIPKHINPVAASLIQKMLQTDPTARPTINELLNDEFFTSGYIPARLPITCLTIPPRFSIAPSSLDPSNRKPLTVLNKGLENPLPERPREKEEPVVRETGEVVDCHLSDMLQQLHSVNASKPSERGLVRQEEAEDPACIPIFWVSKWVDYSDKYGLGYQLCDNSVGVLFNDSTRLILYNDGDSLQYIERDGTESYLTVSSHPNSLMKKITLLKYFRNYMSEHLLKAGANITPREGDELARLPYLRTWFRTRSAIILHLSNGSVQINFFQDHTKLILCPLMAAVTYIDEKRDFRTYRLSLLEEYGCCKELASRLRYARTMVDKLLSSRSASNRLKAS
# MST1 [5] = target: T4, MST1; assay: KiNativ, OCI cells live cell; format: cell-based; conditions: labeling site Lys1, peptide ETGQIVAIKQVPVESDLQEIIK
# T1 sequence (P23458 whole entry, the tested form may be a part): as the sequence (P23458 whole entry, the tested form may be a part) above
compound,measurement,setting,value
CN1CCN(Cc2ccc(Nc3ncc(Cl)c(Nc4ccccc4S(=O)(=O)N(C)C)n3)cc2)CC1 [TP-0903],inhibition at 0.1 µM,PIK3CB,-7.2%
same,Inhibition,"JAK1 domain2; labeling site Activation Loop, peptide IGDFGLTKAIETDKEYYTVK",-56.4%
same,Inhibition,"JAK1 domain2; labeling site Lys1, peptide YDPEGDNTGEQVAVKSLKPESGGNHIADLKK",-85.5%
same,inhibition at 0.1 µM,PFTAIRE2,28.4%
same,Inhibition,"MARK2, MARK3",50.8%
same,inhibition at 0.1 µM,JAK3 domain2,31%
same,inhibition at 0.1 µM,PRP4,-18.7%
same,Inhibition,DLK,91.0%
same,Inhibition,"MARK3, MARK4",43.9%
same,Kd,FLT3 ITD/D835V,0.79 nM
same,Inhibition,CK1g3,-14.0%
same,phospho-FLT3 and phospho-STAT5 by immunoblot,[1],inhibited
same,"pAURKA, pAURKB, pAKT, and MCL1 by immunoblot",[2],inhibited
same,inhibition at 0.1 µM,LCK,-4.3%
same,inhibition at 0.1 µM,NEK3,14.6%
same,inhibition at 0.1 µM,PEK,1.7%
same,inhibition at 0.1 µM,RSK1 domain1,-3.8%
same,Inhibition vs DMSO,MST1 [3],42.4%
same,inhibition at 0.1 µM,MAST3,-22.3%
same,inhibition at 0.1 µM,PRPK,29.4%
same,Inhibition vs DMSO,JAK1 domain1,82.7%
same,Kd,CHEK1,24 nM
same,Inhibition,BTK,57.3%
same,phospho-FLT3 and phospho-STAT5 by immunoblot,[4],inhibition
same,Inhibition,"TYK2 domain2; labeling site Activation Loop, peptide IGDFGLAKAVPEGHEYYR",-38.7%
same,Inhibition,"TYK2 domain2; labeling site Lys1, peptide VSLYCYDPTNDGTGEMVAVKALK",21.1%
same,inhibition at 0.1 µM,"CHK2; labeling site Lys1, peptide VAIKIISK",37.7%
same,inhibition at 0.1 µM,"CHK2; labeling site Lys2, peptide DLKPENVLLSSQEEDCLIK",37.1%
same,inhibition at 0.1 µM,"PLK1; labeling site Lys1, peptide CFEISDADTKEVFAGKIVPK",-5%
same,inhibition at 0.1 µM,"PLK1; labeling site Lys2, peptide DLKLGNLFLNEDLEVK",-4.3%
same,Inhibition,MST1 [5],33.6%

# Reference: article PMC7714403 (JCI Insight, 2020)
